pIC50: −log10 of the molar value.

The target of assay [1] is T1, beta-catenin/TCF4 engagement (Homo sapiens, UniProt P35222).
T1 construct: expressed in transfected cells; host or cells: HEK293
T1 sequence (P35222 1-781): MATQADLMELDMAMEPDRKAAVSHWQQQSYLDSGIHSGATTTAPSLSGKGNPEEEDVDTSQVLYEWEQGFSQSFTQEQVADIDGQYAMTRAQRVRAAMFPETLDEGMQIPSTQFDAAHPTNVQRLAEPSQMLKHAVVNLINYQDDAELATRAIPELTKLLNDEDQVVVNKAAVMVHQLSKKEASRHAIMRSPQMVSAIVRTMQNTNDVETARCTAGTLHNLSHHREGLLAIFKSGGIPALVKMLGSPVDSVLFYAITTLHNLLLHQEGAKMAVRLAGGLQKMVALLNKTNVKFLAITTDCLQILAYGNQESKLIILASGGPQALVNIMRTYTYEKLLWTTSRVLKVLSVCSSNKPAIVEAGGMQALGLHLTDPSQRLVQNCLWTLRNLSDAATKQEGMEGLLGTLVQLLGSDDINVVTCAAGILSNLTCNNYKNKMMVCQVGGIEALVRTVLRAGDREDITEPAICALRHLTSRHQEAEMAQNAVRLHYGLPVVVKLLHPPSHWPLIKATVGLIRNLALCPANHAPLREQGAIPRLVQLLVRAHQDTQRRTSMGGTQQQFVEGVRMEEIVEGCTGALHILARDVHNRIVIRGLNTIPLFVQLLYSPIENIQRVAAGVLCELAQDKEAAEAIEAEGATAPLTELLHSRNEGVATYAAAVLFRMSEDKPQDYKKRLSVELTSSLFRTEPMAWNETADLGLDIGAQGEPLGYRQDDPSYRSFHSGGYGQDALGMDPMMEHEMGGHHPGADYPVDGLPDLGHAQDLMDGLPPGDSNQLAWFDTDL
As to the kind of experiment: Nano-BRET target engagement assay (B-cat-Halo & TCF4-Luc in HEK293 cells). Type of assay: cell-based. Particulars: absolute IC50; read-out: NanoBRET Abs IC50. On the technique in general: Bioluminescence resonance energy transfer reports proximity on the nanometre scale.

Assay [2] addresses T2, full-length beta-Catenin (Uniprot ID P35222) (Homo sapiens, UniProt P35222).
T2 construct: 10 nM full-length beta-Catenin (Uniprot ID P35222)
T2 sequence (P35222 1-781): T1 sequence (P35222 1-781)
The assay can be described thus: Fluorescence polarization IC50 (beta-catenin / 5FAM-TCF4 10-53 competition). The class given is binding. The conditions noted are these: fluorescence polarization; read-out: beta-Catenin FP IC50. Background: In fluorescence polarisation assays a small probe gives low polarisation when free and higher when bound to something large.

As a reminder, the pIC50 is the IC50 on a negative log10 scale, so that one unit is a factor of ten. Regarding `CC(=O)N1CCC[C@]12CC=CCCCC1(CCCC=CCCCOC(=O)N3CC[C@@](C(=O)N[C@@H](Cc4ccccc4)C(=O)N[C@@H](Cc4csc5ccccc45)C(=O)N[C@@H](CCC(N)=O)C(N)=O)(C3)NC(=O)[C@H](CC(C)C)NC(=O)[C@H](Cc3ccccc3)NC(=O)[C@H](C)NC(=O)[C@H](CCCCNC(C)C)NC(=O)[C@H](CCC(N)=O)NC(=O)[C@H](CC(=O)O)NC1=O)NC(=O)[C@H](CC1CCCCC1)NC(=O)[C@H](CC(N)=O)NC2=O` (stereo partly drawn) [I-1648, Ac-PL3-Asn-Cha-B5-Asp-Gln-iPrLys-Ala-Phe-Leu-PyrS2-Phe-BztA-Gln-NH2], the pIC50 is under 4.70 in assay [1] and 6.72 in assay [2].
The corresponding values for `CC(=O)N1CCC[C@]12CC=CCCCC1(CCCC=CCCCOC(=O)N3CC[C@@](C(=O)N[C@@H](Cc4ccccc4C(F)(F)F)C(=O)N[C@@H](Cc4csc5ccccc45)C(=O)N[C@@H](CCC(N)=O)C(N)=O)(C3)NC(=O)[C@H](Cc3ccccc3)NC(=O)[C@H](Cc3ccccc3)NC(=O)[C@H](C)NC(=O)[C@H](C)NC(=O)[C@H](Cc3ccccc3C(=O)O)NC(=O)[C@H](CC(=O)O)NC1=O)NC(=O)[C@H](CC(C)(C)C)NC(=O)[C@H](CC(=O)O)NC2=O` (stereo partly drawn) [I-1655, Ac-PL3-Asp-Npg-B5-Asp-2COOHF-Ala-Ala-Phe-Phe-PyrS2-2F3MeF-BztA-Gln-NH2] are 4.90 and 7.32.
Turning to `CC(=O)N1CCC[C@]12CC=CCCCC1(CCCC=CCCCOC(=O)N3CC[C@@](C(=O)N[C@@H](Cc4ccccc4C(F)(F)F)C(=O)N[C@@H](Cc4csc5ccccc45)C(=O)N[C@@H](CCC(N)=O)C(N)=O)(C3)NC(=O)[C@H](CC(C)C)NC(=O)[C@H](Cc3ccccc3)NC(=O)[C@H](C)NC(=O)[C@H](C)NC(=O)[C@H](Cc3ccccc3C(=O)O)NC(=O)[C@H](CC(=O)O)NC1=O)NC(=O)[C@H](CC(C)(C)C)NC(=O)[C@H](CC(=O)O)NC2=O` (stereo partly drawn) [I-1656, Ac-PL3-Asp-Npg-B5-Asp-2COOHF-Ala-Ala-Phe-Leu-PyrS2-2F3MeF-BztA-Gln-NH2], the negative logarithm of the IC50 (pIC50) in assay [1] is 4.96; in assay [2] it was 7.70.
The corresponding values for `CC(=O)N1CCC[C@]12CC=CCCCC1(CCCC=CCCCOC(=O)N3CC[C@@](C(=O)N[C@@H](Cc4ccccc4Cl)C(=O)N[C@@H](Cc4csc5ccccc45)C(=O)N[C@@H](CCC(N)=O)C(N)=O)(C3)NC(=O)[C@H](Cc3ccccc3)NC(=O)[C@H](Cc3ccccc3)NC(=O)[C@H](C)NC(=O)[C@H](C)NC(=O)[C@H](Cc3ccccc3C(=O)O)NC(=O)[C@H](CC(=O)O)NC1=O)NC(=O)[C@H](CC(C)(C)C)NC(=O)[C@H](CC(=O)O)NC2=O` (stereo partly drawn) [I-1657, Ac-PL3-Asp-Npg-B5-Asp-2COOHF-Ala-Ala-Phe-Phe-PyrS2-2C1F-BztA-Gln-NH2] are 4.96 and 7.44.
`CC(=O)N1CCC[C@]12CC=CCCCC1(CCCC=CCCCOC(=O)N3CC[C@@](C(=O)N[C@@H](Cc4ccccc4Cl)C(=O)N[C@@H](Cc4csc5ccccc45)C(=O)N[C@@H](CCC(N)=O)C(N)=O)(C3)NC(=O)[C@H](CC(C)C)NC(=O)[C@H](Cc3ccccc3)NC(=O)[C@H](C)NC(=O)[C@H](C)NC(=O)[C@H](Cc3ccccc3C(=O)O)NC(=O)[C@H](CC(=O)O)NC1=O)NC(=O)[C@H](CC(C)(C)C)NC(=O)[C@H](CC(=O)O)NC2=O` (stereo partly drawn) [I-1658, Ac-PL3-Asp-Npg-B5-Asp-2COOHF-Ala-Ala-Phe-Leu-PyrS2-2C1F-BztA-Gln-NH2]: the figures for the pIC50 in assay [1] and in assay [2] were 5.01 and 7.72, respectively.
The corresponding values for `CC(=O)N1CCC[C@]12CC=CCCCC1(CCCC=CCCCOC(=O)N3CC[C@@](C(=O)N[C@@H](Cc4ccccc4C(F)(F)F)C(=O)N[C@@H](Cc4csc5ccccc45)C(=O)N[C@@H](CO)C(N)=O)(C3)NC(=O)[C@H](Cc3ccccc3)NC(=O)[C@H](Cc3ccccc3)NC(=O)[C@H](C)NC(=O)[C@H](C)NC(=O)[C@H](Cc3ccccc3C(=O)O)NC(=O)[C@H](CC(=O)O)NC1=O)NC(=O)[C@H](CC(C)(C)C)NC(=O)[C@H](CC(=O)O)NC2=O` (stereo partly drawn) [I-1659, Ac-PL3-Asp-Npg-B5-Asp-2COOHF-Ala-Ala-Phe-Phe-PyrS2-2F3MeF-BztA-Ser-NH2] are 4.94 and 6.97.
The corresponding values for `CC(=O)N1CCC[C@]12CC=CCCCC1(CCCC=CCCCOC(=O)N3CC[C@@](C(=O)N[C@@H](Cc4ccccc4Cl)C(=O)N[C@@H](Cc4csc5ccccc45)C(=O)N[C@@H](CO)C(N)=O)(C3)NC(=O)[C@H](Cc3ccccc3)NC(=O)[C@H](Cc3ccccc3)NC(=O)[C@H](C)NC(=O)[C@H](C)NC(=O)[C@H](Cc3ccccc3C(=O)O)NC(=O)[C@H](CC(=O)O)NC1=O)NC(=O)[C@H](CC(C)(C)C)NC(=O)[C@H](CC(=O)O)NC2=O` (stereo partly drawn) [I-1662, Ac-PL3-Asp-Npg-B5-Asp-2COOHF-Ala-Ala-Phe-Phe-PyrS2-2C1F-BztA-Ser-NH2] are 4.92 and 7.16.
The corresponding values for `CC(=O)N1CCC[C@]12CC=CCCCC1(CCCC=CCCCOC(=O)N3CC[C@@](C(=O)N[C@@H](Cc4ccccc4Cl)C(=O)N[C@@H](Cc4csc5ccccc45)C(=O)N[C@@H](CO)C(N)=O)(C3)NC(=O)[C@H](CC(C)C)NC(=O)[C@H](Cc3ccccc3)NC(=O)[C@H](C)NC(=O)[C@H](C)NC(=O)[C@H](Cc3ccccc3C(=O)O)NC(=O)[C@H](CC(=O)O)NC1=O)NC(=O)[C@H](CC(C)(C)C)NC(=O)[C@H](CC(=O)O)NC2=O` (stereo partly drawn) [I-1663, Ac-PL3-Asp-Npg-B5-Asp-2COOHF-Ala-Ala-Phe-Leu-PyrS2-2C1F-BztA-Ser-NH2] are 5.07 and 7.17.
Turning to `CCNC(=O)[C@H](CCC(N)=O)NC(=O)[C@H](Cc1csc2ccccc12)NC(=O)[C@H](Cc1ccccc1Cl)NC(=O)[C@]12CCN(C1)C(=O)OCCCC=CCCCC1(CCCC=CC[C@]3(CCCN3C(C)=O)C(=O)N[C@@H](CC(=O)O)C(=O)N[C@@H](CC(C)(C)C)C(=O)N1)C(=O)N[C@@H](CC(=O)O)C(=O)N[C@@H](Cc1cccc(C(=O)O)c1)C(=O)N[C@@H](C)C(=O)N[C@@H](C)C(=O)N[C@@H](Cc1ccccc1)C(=O)N[C@@H](CC(C)C)C(=O)N2` (stereo partly drawn) [I-1672, Ac-PL3-Asp-Npg-B5-Asp-3COOHF-Ala-Ala-Phe-Leu-PyrS2-2C1F-BztA-Gln-NHEt], the pIC50 in assay [1] is 5.15; in assay [2] it was 7.40.
With `CC(=O)N1CCC[C@]12CC=CCCCC1(CCCC=CCCCOC(=O)N3CC[C@@](C(=O)N[C@@H](Cc4ccccc4Cl)C(=O)N[C@@H](Cc4csc5ccccc45)C(=O)N[C@@H](CCC(N)=O)C(=O)N[C@H](CO)Cc4ccccc4)(C3)NC(=O)[C@H](CC(C)C)NC(=O)[C@H](Cc3ccccc3)NC(=O)[C@H](C)NC(=O)[C@H](C)NC(=O)[C@H](Cc3cccc(C(=O)O)c3)NC(=O)[C@H](CC(=O)O)NC1=O)NC(=O)[C@H](CC(C)(C)C)NC(=O)[C@H](CC(=O)O)NC2=O` (stereo partly drawn) [I-1674, Ac-PL3-Asp-Npg-B5-Asp-3COOHF-Ala-Ala-Phe-Leu-PyrS2-2C1F-BztA-Gln-], the pIC50 in assay [1] is 4.74; in assay [2], 6.83.
As to `CC(=O)N1CCC[C@]12CC=CCCCC1(CCCC=CCCCOC(=O)N3CC[C@@](C(=O)N[C@@H](Cc4ccccc4Cl)C(=O)N[C@@H](Cc4csc5ccccc45)C(=O)N[C@@H](CCC(N)=O)C(=O)N4CCC[C@H]4CO)(C3)NC(=O)[C@H](CC(C)C)NC(=O)[C@H](Cc3ccccc3)NC(=O)[C@H](C)NC(=O)[C@H](C)NC(=O)[C@H](Cc3cccc(C(=O)O)c3)NC(=O)[C@H](CC(=O)O)NC1=O)NC(=O)[C@H](CC(C)(C)C)NC(=O)[C@H](CC(=O)O)NC2=O` (stereo partly drawn) [I-1675, Ac-PL3-Asp-Npg-B5-Asp-3COOHF-Ala-Ala-Phe-Leu-PyrS2-2C1F-BztA-Gln-Proo1], the pIC50 was 5.01 in assay [1] and 7.73 in assay [2].
The corresponding values for `CCNC(=O)[C@H](CCC(N)=O)NC(=O)[C@H](Cc1csc2ccccc12)NC(=O)[C@H](Cc1ccsc1)NC(=O)[C@]12CCN(C1)C(=O)OCCCC=CCCCC1(CCCC=CC[C@]3(CCCN3C(C)=O)C(=O)N[C@@H](CC(=O)O)C(=O)N[C@@H](CC(C)(C)C)C(=O)N1)C(=O)N[C@@H](CC(=O)O)C(=O)N[C@@H](CN(CC(=O)O)CC(F)(F)F)C(=O)N[C@@H](C)C(=O)N[C@@H](C)C(=O)N[C@@H](Cc1ccccc1)C(=O)N[C@@H](CC(C)C)C(=O)N2` (stereo partly drawn) [I-1678, Ac-PL3-Asp-Npg-B5-Asp-TfeGA-Ala-Ala-Phe-Leu-PyrS2-3Thi-BztA-Gln-NHEt] are 5.01 and 7.49.
The corresponding values for `CC(=O)N1CCC[C@]12CC=CCCCC1(CCCC=CCCCOC(=O)N3CC[C@@](C(=O)N[C@@H](Cc4ccsc4)C(=O)N[C@@H](Cc4csc5ccccc45)C(=O)N[C@@H](CCC(N)=O)C(=O)N[C@H](CO)Cc4ccccc4)(C3)NC(=O)[C@H](CC(C)C)NC(=O)[C@H](Cc3ccccc3)NC(=O)[C@H](C)NC(=O)[C@H](C)NC(=O)[C@H](CN(CC(=O)O)CC(F)(F)F)NC(=O)[C@H](CC(=O)O)NC1=O)NC(=O)[C@H](CC(C)(C)C)NC(=O)[C@H](CC(=O)O)NC2=O` (stereo partly drawn) [I-1680, Ac-PL3-Asp-Npg-B5-Asp-TfeGA-Ala-Ala-Phe-Leu-PyrS2-3Thi-BztA-Gln-Pheo1] are 4.90 and 7.09.

These data come from US20240116985A1, “STAPLED PEPTIDES AND METHODS THEREOF” (priority 2020, published 2024).
